For data set [1] the following is noted: anaerostipes sp., 12 h, 2 µM.
Description: The drug is tested on Anaerostipes sp. strain: fecal isolate for biotransformation. The drug concentrations were measured before and after a 12-h incubation by liquid-chromatography-coupled mass spectrometry (LC–MS)
Data set [2] is described as follows: The drug is tested on Bacteroides fragilis strain: HMW610 for biotransformation. The drug concentrations were measured before and after a 12-h incubation by liquid-chromatography-coupled mass spectrometry (LC–MS). The conditions noted are these: 2 µM.
Data set [3] is described as follows: The drug is tested on Dorea formicigenerans strain: ATCC27755 for biotransformation. The drug concentrations were measured before and after a 12-h incubation by liquid-chromatography-coupled mass spectrometry (LC–MS). The conditions noted are these: 2 µM.
Data set [4] can be described thus: The drug is tested on Collinsella intestinalis strain: DSM13280 for biotransformation. The drug concentrations were measured before and after a 12-h incubation by liquid-chromatography-coupled mass spectrometry (LC–MS). The conditions noted are these: 2 µM.
The conditions of data set [5]: bacteroides eggerthii, 12 h, 2 µM.
Description: The drug is tested on Bacteroides eggerthii strain: DSM20697 for biotransformation. The drug concentrations were measured before and after a 12-h incubation by liquid-chromatography-coupled mass spectrometry (LC–MS)
The nature of data set [6]: The drug is tested on Ruminococcus lactaris strain: ATCC29176 for biotransformation. The drug concentrations were measured before and after a 12-h incubation by liquid-chromatography-coupled mass spectrometry (LC–MS). Particulars: 2 µM.
For data set [7] the following is noted: parabacteroides johnsonii, 12 h, 2 µM.
Description: The drug is tested on Parabacteroides johnsonii strain: DSM18315 for biotransformation. The drug concentrations were measured before and after a 12-h incubation by liquid-chromatography-coupled mass spectrometry (LC–MS)
A short description of data set [8]: The drug is tested on Eggerthella lenta strain: ATCC25559 for biotransformation. The drug concentrations were measured before and after a 12-h incubation by liquid-chromatography-coupled mass spectrometry (LC–MS). Particulars: 2 µM.
A short description of data set [9]: The drug is tested on Clostridium scindens strain: ATCC35704 for biotransformation. The drug concentrations were measured before and after a 12-h incubation by liquid-chromatography-coupled mass spectrometry (LC–MS). Particulars: 2 µM.
Data set [10] can be described thus: The drug is tested on Bacteroides xylanisolvens strain: DSM18836 for biotransformation. The drug concentrations were measured before and after a 12-h incubation by liquid-chromatography-coupled mass spectrometry (LC–MS). The conditions noted are these: 2 µM.
The conditions of data set [11]: bifidobacterium adolescentis, 12 h, 2 µM.
Description: The drug is tested on Bifidobacterium adolescentis strain: ATCC 15703 for biotransformation. The drug concentrations were measured before and after a 12-h incubation by liquid-chromatography-coupled mass spectrometry (LC–MS)
Data set [12] is described as follows: The drug is tested on Bacteroides uniformis strain: ATCC8492 for biotransformation. The drug concentrations were measured before and after a 12-h incubation by liquid-chromatography-coupled mass spectrometry (LC–MS). Particulars: 2 µM.
For data set [13] the following is noted: segatella copri, 12 h, 2 µM.
Description: The drug is tested on Prevotella copri strain: DSM18205 for biotransformation. The drug concentrations were measured before and after a 12-h incubation by liquid-chromatography-coupled mass spectrometry (LC–MS)
Data set [14] can be described thus: The drug is tested on Bacteroides sp. WH2 strain: WH2 for biotransformation. The drug concentrations were measured before and after a 12-h incubation by liquid-chromatography-coupled mass spectrometry (LC–MS). Particulars: bacteroides sp. wh2, 12 h, 2 µM.
The conditions of data set [15]: bacteroides intestinalis, 12 h, 2 µM.
Description: The drug is tested on Bacteroides intestinalis strain: DSM17393 for biotransformation. The drug concentrations were measured before and after a 12-h incubation by liquid-chromatography-coupled mass spectrometry (LC–MS)
For data set [16] the following is noted: bacteroides fragilis, 12 h, 2 µM.
Description: The drug is tested on Bacteroides fragilis strain: 3397 (T10) for biotransformation. The drug concentrations were measured before and after a 12-h incubation by liquid-chromatography-coupled mass spectrometry (LC–MS)
Data set [17] is described as follows: The drug is tested on Parabacteroides merdae strain: ATCC43184 for biotransformation. The drug concentrations were measured before and after a 12-h incubation by liquid-chromatography-coupled mass spectrometry (LC–MS). Particulars: 2 µM.
Data set [18] is described as follows: The drug is tested on Clostridium sporogenes strain: ATCC15579 for biotransformation. The drug concentrations were measured before and after a 12-h incubation by liquid-chromatography-coupled mass spectrometry (LC–MS). The conditions noted are these: 2 µM.
Data set [19] can be described thus: The drug is tested on Odoribacter splanchnicus strain: fecal isolate for biotransformation. The drug concentrations were measured before and after a 12-h incubation by liquid-chromatography-coupled mass spectrometry (LC–MS). The conditions noted are these: 2 µM.
A short description of data set [20]: The drug is tested on Clostridium sp. strain: fecal isolate for biotransformation. The drug concentrations were measured before and after a 12-h incubation by liquid-chromatography-coupled mass spectrometry (LC–MS). The conditions noted are these: 2 µM.

Turning to `C[C@@H]1C[C@H]2[C@@H]3CCC4=CC(=O)C=C[C@]4(C)[C@@]3(F)[C@@H](O)C[C@]2(C)[C@@]1(O)C(=O)CO` [DEXAMETHASONE], the “Bacterial Biotransformation” value in data set [1] is recorded as “Compound NOT metabolized”; in [2], “Compound metabolized”; in [3], “Compound NOT metabolized”; in data set [4], “Compound NOT metabolized”; in data set [5] it was “Compound NOT metabolized”; in data set [6], “Compound NOT metabolized”. Further, the “Bacterial Biotransformation” value was “Compound metabolized” in data set [7]; “Compound NOT metabolized” in data set [8]; “Compound metabolized” in [9]; “Compound metabolized” in [10]; “Compound NOT metabolized” in data set [11]; “Compound metabolized” in [12]. Also, the “Bacterial Biotransformation” value in [13], in [14] and in [15] was “Compound NOT metabolized” each time.
Turning to `O=C(O[C@H]1C[C@H]2CC[C@@H](C1)[N+]21CCCC1)C(O)(c1ccccc1)c1ccccc1.[Cl-]` [TROSPIUM CHLORIDE], the “Bacterial Biotransformation” value in data set [1], in data set [16], in data set [3], in data set [4], in data set [17] and in [5] was “Compound NOT metabolized” each time. Besides, the “Bacterial Biotransformation” value in data set [6], in data set [18], in [7], in [8], in [9] and in data set [10] was “Compound NOT metabolized” in each case. For the same compound, the “Bacterial Biotransformation” value in [11], in data set [12], in data set [13], in data set [14] and in data set [15] was “Compound NOT metabolized” in each case.
For the compound `CC(=O)O[C@H]1C(=O)[C@@]2(C)[C@H]([C@H](OC(=O)c3ccccc3)[C@]3(O)C[C@H](OC(=O)[C@H](O)[C@@H](NC(=O)c4ccccc4)c4ccccc4)C(C)=C1C3(C)C)[C@]1(OC(C)=O)CO[C@@H]1C[C@@H]2O` [PACLITAXEL], the “Bacterial Biotransformation” value in data set [1], in data set [16], in [3], in data set [4], in data set [17] and in data set [5] was “Compound NOT metabolized” in each case. For the same compound, the “Bacterial Biotransformation” value in data set [18] was “Compound NOT metabolized”; in [7], “Compound NOT metabolized”; in [8] it was “Compound NOT metabolized”; in data set [9] it was “Compound NOT metabolized”; in data set [10] it was “Compound metabolized”; in data set [11], “Compound NOT metabolized”. Besides, the “Bacterial Biotransformation” value in data set [12] is “Compound metabolized”; in [19], “Compound metabolized”; in [13], “Compound NOT metabolized”; in data set [14] it was “Compound NOT metabolized”; in data set [15], “Compound NOT metabolized”.
Take `COC(=O)C(c1ccccc1)C1CCCCN1` (configuration not stated) [METHYLPHENIDATE]: the “Bacterial Biotransformation” value was “Compound NOT metabolized” in [16]; “Compound NOT metabolized” in [2]; “Compound metabolized” in data set [20]; “Compound NOT metabolized” in data set [4]; “Compound NOT metabolized” in data set [5]; “Compound NOT metabolized” in data set [6]. Further, the “Bacterial Biotransformation” value in data set [18] was “Compound metabolized”; in data set [7], “Compound metabolized”; in [8], “Compound metabolized”; in data set [10] it was “Compound NOT metabolized”; in [12], “Compound NOT metabolized”; in [14], “Compound NOT metabolized”. Further, the “Bacterial Biotransformation” value in data set [15] was “Compound NOT metabolized”.
Turning to `CCCCC(=O)O[C@]1(C(=O)CO)[C@@H](C)C[C@H]2[C@@H]3CCC4=CC(=O)C=C[C@]4(C)[C@@]3(F)[C@@H](O)C[C@@]21C` [BETAMETHASONE VALERATE], the “Bacterial Biotransformation” value in data set [1] is “Compound NOT metabolized”; in [2], “Compound metabolized”; in [3], “Compound NOT metabolized”; in [20] it was “Compound metabolized”; in [4] it was “Compound NOT metabolized”; in data set [5], “Compound metabolized”. Moreover, the “Bacterial Biotransformation” value is “Compound NOT metabolized” in data set [6]; “Compound metabolized” in data set [7]; “Compound metabolized” in data set [8]; “Compound metabolized” in data set [9]; “Compound metabolized” in data set [10]; “Compound metabolized” in data set [12]. Besides, the “Bacterial Biotransformation” value in data set [19] is “Compound metabolized”; in data set [13], “Compound NOT metabolized”; in data set [14], “Compound NOT metabolized”.
As for `CN(C)C(=O)C(CCN1CCC(O)(c2ccc(Cl)cc2)CC1)(c1ccccc1)c1ccccc1` [LOPERAMIDE], the “Bacterial Biotransformation” value in [1] is reported as “Compound NOT metabolized”; in data set [16], “Compound metabolized”; in data set [2] it was “Compound metabolized”; in [3], “Compound NOT metabolized”; in data set [20], “Compound metabolized”; in [5], “Compound metabolized”. Moreover, the “Bacterial Biotransformation” value in data set [6] is “Compound NOT metabolized”; in [18], “Compound metabolized”; in data set [8], “Compound NOT metabolized”; in [9] it was “Compound NOT metabolized”; in data set [10], “Compound metabolized”; in data set [11], “Compound NOT metabolized”. Moreover, the “Bacterial Biotransformation” value in [12] is recorded as “Compound metabolized”; in data set [19], “Compound metabolized”; in [14], “Compound NOT metabolized”.
On to `Cc1cc(C)cc(OCC2CNC(=O)O2)c1` (configuration not stated) [METAXALONE], for which the “Bacterial Biotransformation” value is listed as “Compound NOT metabolized” in [1]; “Compound metabolized” in data set [2]; “Compound NOT metabolized” in [3]; “Compound metabolized” in [20]; “Compound NOT metabolized” in [4]; “Compound NOT metabolized” in [6]. In addition, the “Bacterial Biotransformation” value in data set [18] is on record as “Compound NOT metabolized”; in data set [8], “Compound NOT metabolized”; in [9] it was “Compound NOT metabolized”; in [10], “Compound metabolized”; in data set [11], “Compound NOT metabolized”; in data set [12], “Compound metabolized”. Moreover, the “Bacterial Biotransformation” value in data set [19], in [14] and in [15] was “Compound NOT metabolized” throughout.

Source of the values: ChEMBL document CHEMBL5303573, “Mapping human microbiome drug metabolism by gut bacteria and their genes” (Nature, 2019).
